Assay results from ChEMBL document CHEMBL4130457, “Discovery of AZD-2098 and AZD-1678, Two Potent and Bioavailable CCR4 Receptor Antagonists” (ACS Med Chem Lett, 2017).
Values after ≈ are worked out from the molar mass of the structure shown. Active and inactive are the calls of the source. The calls are words filed in the database; no cut-off is given here.

Key:
[1] = Protein binding in mouse plasma; type: ADME, cell-free; settings: read-out: PPB (converted)
[2] = Volume of distribution at steady state in mouse; type: ADME, organism-based; settings: in vivo, read-out: Vdss
[3] = target: T1, C-C chemokine receptor type 4 (Homo sapiens, UniProt P51679); experiment: Antagonist activity at recombinant human CCR4 expressed in CHO-K1 cells assessed as inhibition of CCL22 induced Ca2+ mobilization after 2 hrs by FMAT based fluorescence assay; type: functional, cell-based
T1 sequence (P51679 whole entry): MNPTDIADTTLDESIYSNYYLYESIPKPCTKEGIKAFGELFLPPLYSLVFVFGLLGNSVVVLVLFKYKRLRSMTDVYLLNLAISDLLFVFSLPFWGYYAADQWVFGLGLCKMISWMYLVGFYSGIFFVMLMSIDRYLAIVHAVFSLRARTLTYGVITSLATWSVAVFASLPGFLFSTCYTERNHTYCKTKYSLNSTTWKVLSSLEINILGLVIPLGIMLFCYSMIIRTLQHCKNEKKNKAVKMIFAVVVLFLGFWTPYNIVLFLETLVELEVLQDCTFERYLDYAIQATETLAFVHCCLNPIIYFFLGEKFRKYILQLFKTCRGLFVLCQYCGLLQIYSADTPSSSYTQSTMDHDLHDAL

[4] = Protein binding in rat plasma; type: ADME, cell-free; settings: read-out: PPB (converted)
[5] = target: C-C chemokine receptor type 2 (Homo sapiens) (UniProt P41597); experiment: Antagonist activity at CCR2b (unknown origin) at 10 uM
C-C chemokine receptor type 2 (Homo sapiens), sequence (P41597 whole entry, looked up): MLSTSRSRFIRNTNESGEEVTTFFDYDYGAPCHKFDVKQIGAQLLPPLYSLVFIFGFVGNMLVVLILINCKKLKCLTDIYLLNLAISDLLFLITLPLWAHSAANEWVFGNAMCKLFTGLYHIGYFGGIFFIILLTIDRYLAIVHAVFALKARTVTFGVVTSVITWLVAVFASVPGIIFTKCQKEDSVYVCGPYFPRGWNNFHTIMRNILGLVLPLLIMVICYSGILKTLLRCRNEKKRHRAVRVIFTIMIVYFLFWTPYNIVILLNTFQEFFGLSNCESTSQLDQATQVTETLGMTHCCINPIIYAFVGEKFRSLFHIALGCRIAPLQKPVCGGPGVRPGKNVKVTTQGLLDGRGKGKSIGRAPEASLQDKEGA

[6] = Lipophilicity, log D of the compound; type: physicochemical; settings: octanol/water
[7] = target: T2, C-C chemokine receptor type 4 (Mus musculus, UniProt P51680); experiment: Antagonist activity at mouse CCR4; type: functional
T2 sequence (P51680 whole entry): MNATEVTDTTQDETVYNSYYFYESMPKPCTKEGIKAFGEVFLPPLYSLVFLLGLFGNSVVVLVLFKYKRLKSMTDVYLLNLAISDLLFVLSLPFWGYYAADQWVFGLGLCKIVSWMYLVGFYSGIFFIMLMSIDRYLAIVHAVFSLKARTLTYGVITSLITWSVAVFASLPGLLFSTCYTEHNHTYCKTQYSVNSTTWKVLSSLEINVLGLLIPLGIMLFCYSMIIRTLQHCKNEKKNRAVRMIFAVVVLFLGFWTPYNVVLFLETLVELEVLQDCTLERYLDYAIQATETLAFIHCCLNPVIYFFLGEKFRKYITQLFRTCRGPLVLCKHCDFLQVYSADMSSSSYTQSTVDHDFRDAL

[8] = Solubility of the compound; type: physicochemical
[9] = target: T3, C-C chemokine receptor type 1 (Homo sapiens) (UniProt P32246); experiment: Antagonist activity at CCR1 (unknown origin) at 10 uM; type: functional
T3 sequence (whole entry): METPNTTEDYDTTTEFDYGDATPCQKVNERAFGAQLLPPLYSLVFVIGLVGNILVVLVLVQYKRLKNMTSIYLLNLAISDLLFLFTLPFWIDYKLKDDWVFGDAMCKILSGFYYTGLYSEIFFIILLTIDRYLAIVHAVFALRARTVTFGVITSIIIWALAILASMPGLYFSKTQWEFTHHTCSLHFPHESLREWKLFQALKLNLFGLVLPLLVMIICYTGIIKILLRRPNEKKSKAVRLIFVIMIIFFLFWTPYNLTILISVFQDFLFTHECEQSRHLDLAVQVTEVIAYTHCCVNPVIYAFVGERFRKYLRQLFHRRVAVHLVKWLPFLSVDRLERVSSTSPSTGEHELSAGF

[10] = Oral bioavailability in mouse; type: ADME, organism-based; settings: in vivo
[11] = Antagonist activity at rat CCR4
[12] = target: T4, C-X-C chemokine receptor type 1 (Homo sapiens) (UniProt P25024); experiment: Antagonist activity at CXCR1 (unknown origin) at 10 uM; type: functional
T4 sequence (whole entry): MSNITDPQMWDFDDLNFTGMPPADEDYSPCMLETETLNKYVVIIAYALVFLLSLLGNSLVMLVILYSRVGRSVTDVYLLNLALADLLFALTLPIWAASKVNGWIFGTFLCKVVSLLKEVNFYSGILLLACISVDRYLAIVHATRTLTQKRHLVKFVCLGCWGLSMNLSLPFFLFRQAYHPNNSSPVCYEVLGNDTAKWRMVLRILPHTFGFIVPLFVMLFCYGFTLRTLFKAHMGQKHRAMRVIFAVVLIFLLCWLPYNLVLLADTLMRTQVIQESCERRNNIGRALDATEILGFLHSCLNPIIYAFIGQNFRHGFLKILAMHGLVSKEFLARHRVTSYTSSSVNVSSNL

[13] = target: T5, C-C chemokine receptor type 7 (Homo sapiens) (UniProt P32248); experiment: Antagonist activity at CCR7 (unknown origin) at 10 uM; type: functional
T5 sequence (whole entry): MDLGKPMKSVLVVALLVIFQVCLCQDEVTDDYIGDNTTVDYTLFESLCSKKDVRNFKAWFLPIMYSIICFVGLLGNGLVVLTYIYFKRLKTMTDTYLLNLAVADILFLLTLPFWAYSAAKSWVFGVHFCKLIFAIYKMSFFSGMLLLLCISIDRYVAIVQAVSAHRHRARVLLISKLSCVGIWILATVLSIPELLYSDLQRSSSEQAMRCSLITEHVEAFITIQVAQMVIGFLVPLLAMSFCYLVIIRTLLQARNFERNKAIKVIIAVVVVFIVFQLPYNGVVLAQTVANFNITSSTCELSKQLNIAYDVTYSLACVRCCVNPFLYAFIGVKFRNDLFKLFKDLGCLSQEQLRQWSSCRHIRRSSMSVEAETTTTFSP

[14] = target: C-C chemokine receptor type 8 (Homo sapiens) (UniProt P51685); experiment: Antagonist activity at CCR8 (unknown origin) at 10 uM; type: functional
C-C chemokine receptor type 8 (Homo sapiens), sequence (P51685 whole entry): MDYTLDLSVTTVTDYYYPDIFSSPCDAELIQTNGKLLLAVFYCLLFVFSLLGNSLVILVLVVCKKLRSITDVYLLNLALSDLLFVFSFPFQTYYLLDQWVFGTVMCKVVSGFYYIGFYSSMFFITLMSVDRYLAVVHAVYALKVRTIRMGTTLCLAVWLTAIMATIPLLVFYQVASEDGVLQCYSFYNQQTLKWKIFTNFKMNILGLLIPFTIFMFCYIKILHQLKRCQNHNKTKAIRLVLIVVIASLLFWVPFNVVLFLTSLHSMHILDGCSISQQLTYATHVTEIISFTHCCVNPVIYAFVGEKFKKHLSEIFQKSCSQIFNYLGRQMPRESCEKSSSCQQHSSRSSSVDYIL

[15] = Protein binding in human plasma; type: ADME, cell-free; settings: read-out: PPB (converted)
[16] = Oral bioavailability in rat; type: ADME, organism-based; settings: in vivo
[17] = target: T6, C-X-C chemokine receptor type 2 (Homo sapiens) (UniProt P25025); experiment: Antagonist activity at CXCR2 (unknown origin) at 10 uM; type: functional
T6 sequence (whole entry): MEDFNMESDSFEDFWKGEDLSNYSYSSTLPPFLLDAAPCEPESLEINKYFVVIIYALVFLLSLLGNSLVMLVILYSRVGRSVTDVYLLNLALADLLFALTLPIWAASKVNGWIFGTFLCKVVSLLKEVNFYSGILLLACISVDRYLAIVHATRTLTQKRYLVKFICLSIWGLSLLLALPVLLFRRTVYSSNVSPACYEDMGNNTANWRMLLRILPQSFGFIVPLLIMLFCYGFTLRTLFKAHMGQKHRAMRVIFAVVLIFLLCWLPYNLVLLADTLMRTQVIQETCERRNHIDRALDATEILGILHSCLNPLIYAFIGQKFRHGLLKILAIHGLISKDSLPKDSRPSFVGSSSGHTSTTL

[18] = target: C-C chemokine receptor type 5 (Homo sapiens) (UniProt P51681); experiment: Antagonist activity at CCR5 (unknown origin) at 10 uM; type: functional
C-C chemokine receptor type 5 (Homo sapiens), sequence (P51681 whole entry, looked up): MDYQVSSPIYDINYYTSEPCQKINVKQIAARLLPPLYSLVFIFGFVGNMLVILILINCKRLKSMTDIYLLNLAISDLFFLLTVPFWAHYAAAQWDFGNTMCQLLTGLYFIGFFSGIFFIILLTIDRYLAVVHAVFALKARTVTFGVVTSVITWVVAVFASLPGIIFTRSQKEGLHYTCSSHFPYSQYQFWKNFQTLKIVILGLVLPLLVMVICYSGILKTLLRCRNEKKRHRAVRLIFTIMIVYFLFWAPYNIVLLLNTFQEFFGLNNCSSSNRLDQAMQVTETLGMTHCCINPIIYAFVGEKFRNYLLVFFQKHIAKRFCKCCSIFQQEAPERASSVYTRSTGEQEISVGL

[19] = Volume of distribution at steady state in rat; type: ADME, organism-based; settings: in vivo, read-out: Vdss
[20] = Clearance in dog at 9 umol/kg, po or 3 umol/kg, iv; type: ADME, organism-based, Canis lupus familiaris; settings: in vivo
[21] = Clearance in rat at 9 umol/kg, po or 3 umol/kg, iv; type: ADME, organism-based; settings: in vivo
[22] = Volume of distribution at steady state in rat at 9 umol/kg, po or 3 umol/kg, iv; type: ADME, organism-based; settings: in vivo, read-out: Vdss
[23] = Half life in dog at 9 umol/kg, po or 3 umol/kg, iv; type: ADME, organism-based, Canis lupus familiaris; settings: in vivo
[24] = Half life in rat at 9 umol/kg, po or 3 umol/kg, iv; type: ADME, organism-based; settings: in vivo
[25] = Oral bioavailability in dog at 9 umol/kg; type: ADME, organism-based, Canis lupus familiaris; settings: in vivo
[26] = target: T1, C-C chemokine receptor type 4; experiment: Antagonist activity at human CCR4 expressed in HEK cells coexpressing CD4+ assessed as inhibition of CCL22 induced Ca2+ mobilization; type: functional, cell-based
[27] = Oral bioavailability in rat at 9 umol/kg; type: ADME, organism-based; settings: in vivo
[28] = target: T7, C-C chemokine receptor type 4 (Homo sapiens) (UniProt P51679); experiment: Agonist activity at CCR4 (unknown origin) up to 10 uM; type: functional
T7 sequence (whole entry): T1 sequence (P51679 whole entry)

Hepatocyte = experiment: Stability in human hepatocytes assessed per million cells
[29] = Volume of distribution at steady state in dog at 9 umol/kg, po or 3 umol/kg, iv; type: ADME, organism-based, Canis lupus familiaris; settings: in vivo, read-out: Vdss
[30] = Lipophilicity, log P of the compound; type: physicochemical; settings: octanol/water
[31] = target: T8, C-C chemokine receptor type 4 (Canis lupus familiaris, UniProt Q8MJW8); experiment: Antagonist activity at dog CCR4
T8 sequence (Q8MJW8 whole entry): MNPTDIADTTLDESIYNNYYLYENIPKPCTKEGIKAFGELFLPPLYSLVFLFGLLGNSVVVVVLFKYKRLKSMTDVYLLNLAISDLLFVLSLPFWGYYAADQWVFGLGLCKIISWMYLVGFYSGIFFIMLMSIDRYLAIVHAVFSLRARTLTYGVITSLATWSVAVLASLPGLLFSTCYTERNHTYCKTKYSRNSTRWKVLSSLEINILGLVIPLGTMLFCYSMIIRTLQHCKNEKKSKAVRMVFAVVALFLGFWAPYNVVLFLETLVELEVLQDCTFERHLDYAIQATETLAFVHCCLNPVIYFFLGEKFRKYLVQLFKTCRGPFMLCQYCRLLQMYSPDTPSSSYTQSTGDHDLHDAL

Row | SMILES | IC50 [3] [nM] | Activity [5] | logD [6] | IC50 [7] [nM] | solubility [8] [µg/mL] | Activity [9] | pIC50 [11] | Activity [12] | Activity [13] | Activity [14] | fraction unbound [15] | Activity [17] | Activity [18] | further results
1 | COc1nc(Br)cnc1NS(=O)(=O)c1ccc(Cl)s1 | 63.1 | inactive | 1.1 | 5.01 | 340 (≈ 884 µM) | inactive | 8.3 | inactive | inactive | inactive | < 0.001 | inactive | inactive | fraction unbound [1]: 0.033; Vd [2]: 0.1 L/kg; fraction unbound [4]: 0.0015; bioavailability [10]: 86%; bioavailability [16]: 45%; Vd [19]: 0.1 L/kg
2 | COc1nc(F)cnc1NS(=O)(=O)c1cccc(Cl)c1Cl | 2.51 | inactive | 0.6 | 1 | 1300 (≈ 3690 µM) | inactive | 9 | inactive | inactive | inactive | 0.006 | inactive | inactive | clearance [20]: 3.7 mL/min/kg; clearance [21]: 2.3 mL/min/kg; Vd [22]: 0.2 L/kg; half-life [23]: 0.5 h; half-life [24]: 2.5 h; bioavailability [25]: 100%; IC50 [26]: 3.98 nM; bioavailability [27]: 100%; Activity [28]: inactive; Stability (Hepatocyte): < 1 uL/ml; Vd [29]: 0.2 L/kg; logP [30]: 3.1; IC50 [31]: 3.16 nM
